The record followed here is patent publication US20220409617A1, “Drug Formulations and Methods of Treatment for Metabolic Disorders” (The Regents of the University of California, priority 2019, published 2022).

The assay has as its system brain mitochondria. The experiment in a line: Brain (hypothalamus) mitochondrial morphology, citrate synthase staining. It is filed as in vivo, mouse. To be noted: single oral dose 120 mg/kg, HFD-fed mice. The procedure: Preventing mitochondrial fission in the liver improves insulin sensitivity in mice with diet-induced obesity, while blocking fission in anorexigenic hypothalamic POMC neurons reduces food intake by restoring leptin sensitivity (A. Santoro, et al., 2017; and M. Schneeberger, et al., 2013, cited supra). To determine whether sphingolipid-like compound 893 was also effective in the hypothalamus, mitochondrial morphology was assessed in the brains of the same mice evaluated in FIG. 13. Due to the increased time required to remove the organ, brain mitochondria were visualized in fixed tissues by immunofluorescence microscopy rather than by NADH/NADPH autofluorescence. […] Sphingolipid-like compound 893 reversed these HFD-induced changes in mitochondrial morphology in the brains of 3 out of 4 animals examined (FIG. 14). […]
MEFs were washed twice with PBS and fixed with 4% paraformaldehyde for 10 min at RT. […] NADH/NADPH autofluorescence was detected with 740 nm excitation and 450±50 nm detectors using a Mai Tai two-photon laser. Fluorescence microscopy was performed on a Zeiss LSM 780 confocal using a 63× oil objective with a […] numerical aperture (NA) or using a Nikon TE2000-S inverted epifluorescence microscope with a 100× oil objective (1.3 NA) and a Photometrics CoolSNAP ES2 monochrome CCD camera. […]

Each structure is given as a SMILES string.

As to `CCCCCCCCc1ccc([C@H]2CCN[C@@H]2CO)cc1.Cl` [compound 893], the “Animals with reversal of HFD-induced changes in brain mitochondrial morphology” value was 3 out of 4.
